The values that follow are results of earlier work, collected in patent US7723528B2, “Sulfur transfer reagents for oligonucleotide synthesis” (AM Chemicals LLC, priority 2008, dated 2010).

The conditions of the data set: background statement.

Each structure is given as a SMILES string.

For the compound `O=C1SS(=O)(=O)c2ccccc21` [Beaucage reagent, 3H-1,2-benzodithiol-3-one-1,1-dioxide], the Hydrolytic stability entry is listed as “rather low”. Turning to `CCOc1nc(=O)ss1` [EDITH, 3-ethoxy-1,2,4-dithiazoline-5-one], the Hydrolytic stability entry is recorded as “rather low”.
